Data published in the NIST ThermoML archive (doi:10.1021/je2000217).

Assay: cn = amount concentration of the nth substance listed, in mol/dm3
Conditions: 100 kPa, Liquid; for viscosity: Capillary tube (Ostwald / Ubbelohde) method; for mass density: Vibrating tube method

CCCCCCCCCCCCCCCC[N+](C)(C)C.[Br-] [N,N,N-trimethyl-1-hexadecanaminium bromide] + O
Conditions | mass density, 298.15 K [kg/m3] | mass density, 308.15 K [kg/m3] | mass density, 318.15 K [kg/m3] | viscosity, 298.15 K [mPa·s] | viscosity, 308.15 K [mPa·s] | viscosity, 318.15 K [mPa·s]
c1 = 0.001 | 997.1 | 994.2 | 990.6 | 0.8978 | 0.7436 | 0.6173
c1 = 0.003 | 997.3 | 994.3 | 990.7 | 0.9087 | 0.7516 | 0.6217
c1 = 0.005 | 997.4 | 994.4 | 990.8 | 0.9213 | 0.7596 | 0.6349
